In patent US7014844B2, “Lightening compositions and methods of use” (Avon Products, Inc., priority 2001, dated 2006):

How the values were obtained:
DOPAchrome tautomerase = biological target: T1, DOPAchrome tautomerase (Mus musculus, UniProt P29812); assay: DOPAchrome tautomerase (DCT) assay; assay type: biochemical; settings: 0.05 wt %; cell extract; phenylthiourea 1 mM; 475 nm
T1 construct: DCT was assayed spectrophotometrically by adding up to 0.1 ml cell extract; endogenous in cells
Protocol: DOPAchrome tautomerase (DCT) activity was assayed according to the method disclosed in Chakraborty et al., 1998, Effect of arbutin on melanogenic proteins in human melanocytes, Pigment Cell Res. 11: 206–212. Specifically, ice-cold DOPA (0.5 mg per ml of 0.1 M sodium phosphate buffer, pH 6.8) was mixed with Ag2O (30 mg Ag2O: 1 mg DOPA) for about 1 minute and filtered through a 0.22 μm Millipore filter. DCT was assayed spectrophotometrically by adding up to 0.1 ml cell extract to 0.5 ml of a solution of freshly prepared DOPAchrome (˜0.5 mg/ml). Reactions were carried out at room temperature in plastic cuvettes, and the disappearance of absorption at 475 nm was followed. Phenylthiourea (1 mM) was added to the reaction mixture, because the presence of tyrosinase in the cell extract can interfere with the assay. The percentage conversion of DOPAchrome was calculated per mg of protein extract and normalized against the control.

tyrosinase = biological target: T2, tyrosinase (Mus musculus, UniProt P11344); assay: Tyrosinase assay; assay type: biochemical; settings: 0.05 wt %; mouse melanoma cell extract; DOPA substrate; 475 nm
T2 construct: Tyrosinase was assayed spectrophotometrically by adding up to 0.1 ml cell extract; endogenous in cells
T2 sequence (P11344 19-533): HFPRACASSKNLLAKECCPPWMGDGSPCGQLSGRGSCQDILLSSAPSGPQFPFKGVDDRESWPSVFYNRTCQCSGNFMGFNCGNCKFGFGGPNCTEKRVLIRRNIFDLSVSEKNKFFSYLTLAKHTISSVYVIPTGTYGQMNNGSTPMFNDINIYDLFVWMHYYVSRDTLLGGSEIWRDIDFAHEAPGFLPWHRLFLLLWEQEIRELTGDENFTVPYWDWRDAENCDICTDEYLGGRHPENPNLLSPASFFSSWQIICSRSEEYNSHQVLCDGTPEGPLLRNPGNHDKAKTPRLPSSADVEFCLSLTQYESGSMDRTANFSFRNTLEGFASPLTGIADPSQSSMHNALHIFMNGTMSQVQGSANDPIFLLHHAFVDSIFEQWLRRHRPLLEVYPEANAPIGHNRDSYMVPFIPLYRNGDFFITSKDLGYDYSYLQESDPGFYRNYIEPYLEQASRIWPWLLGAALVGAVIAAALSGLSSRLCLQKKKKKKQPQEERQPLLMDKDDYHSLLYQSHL
Protocol: A tyrosinase assay was performed according to the method outlined in Chakraborty et al., 1989, Melanogenic regulatory factors in coated vesicles from melanoma cells, J. Invest. Dermatol. 93: 616–620. Specifically, mouse melanoma cells were dissolved with the addition of 0.1 M sodium phosphate buffer, pH 6.8, containing Triton X-100 (1% vol/vol), at a ratio of 1-5×10^6 cells/ml. After 10 minutes on ice, the extracts were centrifuged at 4° C. (10,000 g, for 10 minutes) and the supernatant fractions were assayed for tyrosinase. Tyrosinase was assayed spectrophotometrically by adding up to 0.1 ml cell extract to 0.2 ml of a solution of freshly prepared DOPA (˜0.5 mg/ml), in a total volume of 0.5 ml of 0.1 M sodium phosphate buffer, pH 6.8. Reactions were carried out at 37° C. in plastic cuvettes, and the appearance of absorption at 475 nm was followed.

DHICA polymerase = DHICA polymerase assay; assay type: biochemical; settings: 0.05 wt %; wheat germ agglutinin eluate; 4 hours; 400 nm
Protocol: A DHICA polymerase assay was performed according to the method disclosed in Chakraborty et al., 1996, Polymerization of 5, 6-dihydroxyindole-2-Carboxylic acid to melanin by the pmell7/silver locus protein, Eur. J. Biochem. 236: 180–188. Specifically, the cell extract (0.5 ml, 150–200 μg protein) was passed through a wheat germ agglutinin column (1 ml bed volume) equilibrated with lysis buffer. The bound material was eluted with 0.5 ml 1M N-acetyl glucosamine, which contains crude DHICA polymerization factor and other melanogenic proteins. A reaction mixture of 0.5 ml containing either the enzyme preparation to be measured (20 μg protein from wheat germ agglutinin eluates) or the appropriate buffer blank, DHICA (0.5 mM), and 100 mM sodium phosphate buffer, pH 7.0. Phenylthiourea was also included to inhibit endogenous tyrosinase activity in the preparation.
Spectrophotomeric reading of the absorbance of the reaction mixture was taken at T=0 and T=4 hours time points at 400 nm. […] An increase in absorbance over that seen in blank tubes was defined as specific DHICA polymerization factor activity.

[1] = system: Reconstituted Human Epidermis (keratinocytes and Type IV melanocytes); assay: Reconstructed Pigmented Epidermal Tissue Assay; assay type: cell-based; settings: 0.1 wt %; treated 14 days; absorbance at 490 nm
Protocol: A composition containing 0.1 wt % N, N, S (tris) carboxylmethyl cysteamine was tested in a Reconstructed Pigmented Epidermal Tissue Assay. Reconstituted Human Epidermis (tissue) consisting of keratinocytes and Type IV (Fitzpatrick scale) melanocytes (Skin Ethic, France) were grown in maintenance medium obtained from the tissue supplier. This model consists of melanocytes and keratinocytes and the pigmentation of the skin-equivalent is due to melanin. The tissue remained viable through the course of the experimental treatment and actively synthesized and transferred melanin. The skin equivalents were treated for 14 days with the active materials of the present invention and a measure of melanin was obtained by measuring absorbance of the tissue at 490 nm. All studies were conducted in 6-well tissue culture dishes (Falcon), at 37° C. and 5% CO2. All test articles were dissolved in medium. Tissues were fed 1 ml of medium with the active material or medium alone was used as the control. […] After 14 days the tissues were transferred to a 24-well tissue culture dish (Falcon), and pigmentation was assessed using a Packard microplate reader at 490 nm. […] A control baseline reading had been taken on day 2 after the models had equilibrated and used as a baseline tissue pigmentation value. The baseline reading was subtracted from the final readings to eliminate inherent absorbance by the tissue. […]

T1 sequence (P29812 24-517): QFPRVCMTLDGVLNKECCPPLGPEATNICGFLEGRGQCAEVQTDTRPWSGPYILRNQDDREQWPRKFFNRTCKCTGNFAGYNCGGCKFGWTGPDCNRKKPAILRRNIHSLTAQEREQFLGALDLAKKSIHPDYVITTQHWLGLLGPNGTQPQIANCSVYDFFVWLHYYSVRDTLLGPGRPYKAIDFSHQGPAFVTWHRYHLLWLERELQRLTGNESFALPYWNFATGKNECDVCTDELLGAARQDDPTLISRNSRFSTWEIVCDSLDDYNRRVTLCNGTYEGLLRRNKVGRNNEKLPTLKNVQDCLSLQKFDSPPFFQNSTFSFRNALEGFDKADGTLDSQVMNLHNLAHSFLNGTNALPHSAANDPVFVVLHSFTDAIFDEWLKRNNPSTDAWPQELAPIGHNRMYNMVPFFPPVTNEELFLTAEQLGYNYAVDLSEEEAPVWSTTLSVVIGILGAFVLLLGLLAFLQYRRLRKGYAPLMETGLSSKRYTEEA

With `O=C(O)CSCCN(CC(=O)O)CC(=O)O` [N, N, S (tris) carboxylmethyl cysteamine] the “average decrease in DOPAchrome conversion as compared to the control” value (DOPAchrome tautomerase) was 65%, the “average decrease in tyrosinase conversion as compared to the control” value (tyrosinase) was 36% and the “average decrease in DHICA Polymerase conversion compared to the control” value (DHICA polymerase) was 58%. For the same compound, the “reduction of reconstructed epidermal tissue pigmentation in comparison to control tissue” value [1] was “about 40%”.
